Data: ChEMBL document CHEMBL2331210, “New 2-benzylsulfanyl-nicotinic acid based 1,3,4-oxadiazoles: their synthesis and biological evaluation” (2013)
Values after ≈ are worked out from the molar mass of the structure shown.

Experiments:
Assay type in all cases: functional
Aspergillus niger = test: Antimicrobial activity against Aspergillus niger MTCC 282 assessed as growth inhibition measured after overnight incubation by broth dilution method
Streptococcus pyogenes = test: Antimicrobial activity against Streptococcus pyogenes MTCC 442 assessed as growth inhibition measured after overnight incubation by broth dilution method
Aspergillus clavatus = test: Antimicrobial activity against Aspergillus clavatus MTCC 1323 assessed as growth inhibition measured after overnight incubation by broth dilution method
[1] = test system: Mycobacterium tuberculosis; test: Antitubercular activity against Mycobacterium tuberculosis H37Rv assessed as growth inhibition after 12 to 28 days by L.J. agar MIC method; settings: for MIC: Mycobacterium tuberculosis, H37Rv
Escherichia coli = test: Antimicrobial activity against Escherichia coli MTCC 443 assessed as growth inhibition measured after overnight incubation by broth dilution method
Staphylococcus aureus = test: Antimicrobial activity against Staphylococcus aureus MTCC 96 assessed as growth inhibition measured after overnight incubation by broth dilution method
Pseudomonas aeruginosa = test: Antimicrobial activity against Pseudomonas aeruginosa MTCC 2488 assessed as growth inhibition measured after overnight incubation by broth dilution method
Candida albicans = test: Antimicrobial activity against Candida albicans MTCC 227 assessed as growth inhibition measured after overnight incubation by broth dilution method

Compound | MIC (Aspergillus niger) | MIC (Streptococcus pyogenes) | MIC (Aspergillus clavatus) | growth inhibition (GI) [1] | MIC [1] | MIC (Escherichia coli) | MIC (Staphylococcus aureus) | MIC (Pseudomonas aeruginosa) | MIC (Candida albicans)
COc1cc(OC)nc(NC(=O)CCl)n1 | 1000 µg/mL (≈ 4320 µM) | 125 µg/mL (≈ 540 µM) | > 1000 µg/mL | 98% | 250 µg/mL (≈ 1080 µM) | 100 µg/mL (≈ 432 µM) | 500 µg/mL (≈ 2160 µM) | 125 µg/mL (≈ 540 µM) | 500 µg/mL (≈ 2160 µM)
Cc1cnc(NC(=O)CCl)s1 | 500 µg/mL (≈ 2620 µM) | 250 µg/mL (≈ 1310 µM) | 500 µg/mL (≈ 2620 µM) | 97% | 250 µg/mL (≈ 1310 µM) | 250 µg/mL (≈ 1310 µM) | 500 µg/mL (≈ 2620 µM) | 250 µg/mL (≈ 1310 µM) | 200 µg/mL (≈ 1050 µM)
O=C(CCl)Nc1nc(Cl)cc(Cl)n1 | > 1000 µg/mL | 200 µg/mL (≈ 832 µM) | > 1000 µg/mL | 88% | 500 µg/mL (≈ 2080 µM) | 200 µg/mL (≈ 832 µM) | 500 µg/mL (≈ 2080 µM) | 500 µg/mL (≈ 2080 µM) | 250 µg/mL (≈ 1040 µM)
O=C(CCl)Nn1cnnc1 | > 1000 µg/mL | 250 µg/mL (≈ 1560 µM) | > 1000 µg/mL | 90% | 1000 µg/mL (≈ 6230 µM) | 250 µg/mL (≈ 1560 µM) | 500 µg/mL (≈ 3110 µM) | 250 µg/mL (≈ 1560 µM) | 1000 µg/mL (≈ 6230 µM)
CN1CCN(C(=O)CCl)CC1 | > 1000 µg/mL | 100 µg/mL (≈ 566 µM) | 500 µg/mL (≈ 2830 µM) | 99% | 250 µg/mL (≈ 1420 µM) | 125 µg/mL (≈ 708 µM) | 250 µg/mL (≈ 1420 µM) | 100 µg/mL (≈ 566 µM) | 1000 µg/mL (≈ 5660 µM)
Cc1ccc2sc(-c3ccc(NC(=O)CCl)cc3)nc2c1 | 1000 µg/mL (≈ 3160 µM) | 100 µg/mL (≈ 316 µM) | 500 µg/mL (≈ 1580 µM) | 99% | 200 µg/mL (≈ 631 µM) | 125 µg/mL (≈ 395 µM) | 250 µg/mL (≈ 789 µM) | 100 µg/mL (≈ 316 µM) | 500 µg/mL (≈ 1580 µM)
NNC(=O)c1cccnc1SCc1ccccc1 | 500 µg/mL (≈ 1930 µM) | 125 µg/mL (≈ 482 µM) | 250 µg/mL (≈ 964 µM) | 99% | 250 µg/mL (≈ 964 µM) | 125 µg/mL (≈ 482 µM) | 125 µg/mL (≈ 482 µM) | 200 µg/mL (≈ 771 µM) | 500 µg/mL (≈ 1930 µM)
S=c1[nH]nc(-c2cccnc2SCc2ccccc2)o1 | 1000 µg/mL (≈ 3320 µM) | 100 µg/mL (≈ 332 µM) | 200 µg/mL (≈ 664 µM) | 99% | 100 µg/mL (≈ 332 µM) | 100 µg/mL (≈ 332 µM) | 100 µg/mL (≈ 332 µM) | 125 µg/mL (≈ 415 µM) | 1000 µg/mL (≈ 3320 µM)
